Reference: patent US20250019369A1, “N-(4-aminocyclohexyl)pyrimidine-4-carboxamide derivatives as CD38 inhibitors” (Cerevance, Inc., priority 2021, published 2025)
Where a name gives a salt, the structure may show the parent alone. Read-outs that look alike come from different tables or passages of the source.

Columns and labels:
Recombinant mouse CD38 = Recombinant mouse CD38 (Mus musculus (Mouse), UniProt P56528); assay: Mouse CD38 hydrolase assay (fluorescence, ε-NAD substrate); format: biochemical; details: recombinant mouse CD38 0.4 nM, 12 μM ε-NAD, 30 min preincubation at 25° C., pH 7.4
Recombinant mouse CD38, sequence (P56528 whole entry): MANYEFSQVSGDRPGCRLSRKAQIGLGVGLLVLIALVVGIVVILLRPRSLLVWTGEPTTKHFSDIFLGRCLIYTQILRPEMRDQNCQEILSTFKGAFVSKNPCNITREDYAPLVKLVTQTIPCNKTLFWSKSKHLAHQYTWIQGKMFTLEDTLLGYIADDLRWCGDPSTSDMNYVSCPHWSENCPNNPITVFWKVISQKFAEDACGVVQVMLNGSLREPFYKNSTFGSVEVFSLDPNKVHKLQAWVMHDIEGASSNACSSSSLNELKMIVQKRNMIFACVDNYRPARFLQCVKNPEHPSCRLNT
Protocol: (§1) The ability of test compounds to inhibit mouse CD38 hydrolase activity was measured in a fluorescence-based assay using non-physiological NAD^+ substrate analogue 1,N^6-etheno NAD^+ (ε-NAD). Recombinant mouse CD38 (0.4 nM) was preincubated with test compounds in 384-well black microplates for 30 min at 25° C. in PBS (—Ca^2+/Mg^2+) containing 0.005% BSA (pH 7.4). CD38 hydrolase activity was initiated by addition of 12 μM ε-NAD, which yields the fluorescent product 1,N^6-etheno ADP-ribose. Formation of fluorescent product was followed using ClarioStar Plus (BMG) microplate reader by reading fluorescence (excitation λ=300 nm; emission λ=410 nm) at two time points, one immediately after substrate addition (t=0) and one at 6 min (t=6).
(§2) Data was analysed by subtracting the values detected at t=0 from t=6 to correct for variation in baseline fluorescence, and fluorescence values were converted to percent inhibition using the average of high signal (CD38 and ε-NAD) and low signal (CD38 and ε-NAD in the presence of a tool CD38 inhibitor) control wells. IC50 values were determined from a 10-point, half log concentration response curve with a four-parameter logistic equation.

Recombinant human CD38 = Recombinant human CD38 (Homo sapiens (Human), UniProt P28907); assay: Human CD38 hydrolase assay (fluorescence, ε-NAD substrate); format: biochemical; details: recombinant human CD38 0.8 nM, 4 μM ε-NAD, 30 min preincubation at 25° C., pH 7.4
Recombinant human CD38, sequence (P28907 whole entry): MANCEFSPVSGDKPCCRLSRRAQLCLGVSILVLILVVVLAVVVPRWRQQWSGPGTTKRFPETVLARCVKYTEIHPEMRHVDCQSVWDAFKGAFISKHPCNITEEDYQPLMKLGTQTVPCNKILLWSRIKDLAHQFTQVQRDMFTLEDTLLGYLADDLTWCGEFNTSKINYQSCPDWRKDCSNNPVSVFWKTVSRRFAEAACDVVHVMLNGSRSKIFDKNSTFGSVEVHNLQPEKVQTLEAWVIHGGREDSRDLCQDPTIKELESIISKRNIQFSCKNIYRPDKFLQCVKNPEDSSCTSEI
Protocol: as §1, with “inhibit human” for “inhibit mouse”, “Recombinant human” for “Recombinant mouse”, “CD38 (0.8” for “CD38 (0.4”, “of 4” for “of 12”, “at 10” for “at 6”, “min (t=10).” for “min (t=6).”
as §2, with “t=10” for “t=6”, “fluorescence. Fluorescence” for “fluorescence, and fluorescence”

[1] = PK brain permeability in C57BL/6 mice after single oral gavage; format: in vivo; details: 2 hours post dose; for concentration at 2 h: po, 10 mg/kg
Protocol: The distribution of compounds into the brain in vivo was determined in C57BL/6 mice following single oral (po) gavage administration.
Test compounds were formulated at 1 mg/mL in 0.5% HPMC E4 M, 0.2% Tween 80 in water to achieve solutions or homogenous suspensions suitable for po administration.
Formulations were administered to 3 male C57BL/6 mice at a volume of 10 mL/kg resulting in a dose level of 10 mg/kg. Blood samples were collected at 1 and 2 hours post dose into tubes containing K2EDTA as anticoagulant, processed to plasma and stored at −60° C. or lower until LC-MS/MS analysis. Brains were harvested 2 hours post dose, rinsed with saline, dried, weighed and homogenised under ice cold conditions. Brain homogenates were stored at −60° C. or lower until LC-MS/MS analysis.
Dose formulation concentrations were verified using a LC-UV or LC-MS/MS method. Test compound concentrations in plasma and brain homogenate were quantitatively determined using LC-MS/MS methods developed in individual matrices against calibration curves with QC samples included and acceptance criteria as per CRO SOPs. Concentrations in brain homogenate were corrected for the dilution factor used to prepare the homogenate to give concentrations in whole brain tissue.
Plasma and brain concentration versus time data were reported and plotted in excel. The brain to plasma ratio at 2 hours post dose was calculated for each animal using the following equation:
Brain:plasma=brain concentration (ng/g) at 2 h/plasma concentration (ng/mL) at 2 h
As only unbound test compound is available to exert an effect on the target, unbound plasma (Cp,u) and unbound brain (Cb,u) concentrations were calculated by correcting the total concentrations for the unbound fraction in plasma (fu,p) or brain (fu,b) determined from in vitro plasma protein or brain tissue binding assays using the following equations: […]
The unbound partitioning coefficient (Kpu,u) was then calculated based on the ratio of Cb,u to Cp,u using the following equation: […]
In these studies, mice were orally administrated a 10 mg/kg dose and sacrificed 2 hours post dose and tissue samples (brain homogenate and plasma) were analyzed subsequently as described above.

Structure (SMILES) | IC50 (Recombinant mouse CD38) | IC50 (Recombinant human CD38) | also measured
Cc1cc(C(=O)N[C@H]2CC[C@H](NCC(F)(F)F)CC2)nc(-c2cncn2C)n1 [Example 4, 6-methyl-2-(1-methyl-1H-imidazol-5-yl)-N-((1r,4r)-4-((2,2,2-trifluoroethyl)amino)cyclohexyl)pyrimidine-4-carboxamide] | ≤ 40 nM |  | 
Cc1cc(C(=O)N[C@H]2CC[C@H](NCC(F)(F)F)CC2)nc(-c2cncs2)n1 [Example 5, 6-methyl-2-(thiazol-5-yl)-N-((1r,4r)-4-((2,2,2-trifluoroethyl)amino)cyclohexyl)pyrimidine-4-carboxamide] | ≤ 40 nM | ≤ 1000 nM | 
Cc1cc(C(=O)N[C@H]2CC[C@H](NCC(F)F)CC2)nc(-c2cncs2)n1 [Example 8, N-((1r,4r)-4-((2,2-difluoroethyl)amino)cyclohexyl)-6-methyl-2-(thiazol-5-yl)pyrimidine-4-carboxamide] |  | ≤ 1000 nM | 
Cc1cc(C(=O)N[C@H]2CC[C@H](NCC(F)(F)F)CC2)nc(-c2cn[nH]c2)n1 [Example 14, 6-methyl-2-(1H-pyrazol-4-yl)-N-((1r,4r)-4-((2,2,2-trifluoroethyl)amino)cyclohexyl)pyrimidine-4-carboxamide] | ≤ 1000 nM |  | 
Cc1cc(C(=O)N[C@H]2CC[C@H](NCC(F)F)CC2)nc(-c2cn[nH]c2)n1 [Example 15, N-((1r,4r)-4-((2,2-difluoroethyl)amino)cyclohexyl)-6-methyl-2-(1H-pyrazol-4-yl)pyrimidine-4-carboxamide] | ≤ 1000 nM | ≤ 10000 nM | 
O=C(N[C@H]1CC[C@H](NCC(F)F)CC1)c1cc(C2CC2)cc(-n2ccnc2)n1 [Example 16, 4-cyclopropyl-N-((1r,4r)-4-((2,2-difluoroethyl)amino)cyclohexyl)-6-(1H-imidazol-1-yl)picolinamide] | ≤ 40 nM | ≤ 1000 nM | 
O=C(N[C@H]1CC[C@H](NCC(F)(F)F)CC1)c1cc(C2CC2)cc(-n2ccnc2)n1 [Example 20, 4-cyclopropyl-6-(1H-imidazol-1-yl)-N-((1r,4r)-4-((2,2,2-trifluoroethyl)amino)cyclohexyl)picolinamide] | ≤ 40 nM | ≤ 100 nM | 
O=C(N[C@H]1CC[C@H](NCC(F)(F)F)CC1)c1nc(-n2ccnc2)nc2cc[nH]c12 [Example 29, 2-(1H-imidazol-1-yl)-N-((1r,4r)-4-((2,2,2-trifluoroethyl)amino)cyclohexyl)-5H-pyrrolo[3,2-d]pyrimidine-4-carboxamide, reference compound] |  |  | concentration at 2 h ([1]; male, C57BL/6, mouse, brain, read-out: total brain conc.): 1770 nM; concentration at 2 h ([1]; male, C57BL/6, mouse, brain, total corrected for unbound fraction in brain, read-out: free brain conc.): 224 nM; Kpu,u (unbound brain/plasma partition coefficient) at 2 h ([1]; male, C57BL/6, mouse, brain/plasma, oral 10 mg/kg, read-out: Kpu,u (unbound partitioning coefficient, Cb,u/Cp,u)): 0.18; concentration at 2 h ([1]; male, C57BL/6, mouse, plasma, read-out: total plasma conc.): 11100 nM; concentration at 2 h ([1]; male, C57BL/6, mouse, plasma, total corrected for unbound fraction in plasma, read-out: free plasma conc.): 1260 nM; brain exposure (in words) ([1]; oral 10 mg/kg, comment on Table 3, with lower Kpu,u values): much reduced brain exposure

Further lines, with some results ahead:

IC50 (Recombinant mouse CD38) | IC50 (Recombinant human CD38) | Structure (SMILES) | also measured
≤ 40 nM | ≤ 100 nM | CCc1cc(C(=O)N[C@H]2CC[C@H](NCC(F)(F)F)CC2)nc(-n2ccnc2)n1 [Example 6, 6-ethyl-2-(1H-imidazol-1-yl)-N-((1r,4r)-4-((2,2,2-trifluoroethyl)amino)cyclohexyl)pyrimidine-4-carboxamide] | 
 | ≤ 100 nM | Cc1cc(C(=O)N[C@H]2CC[C@H](N(C)CC(F)(F)F)CC2)nc(-n2ccnc2)n1 [Example 7, 2-(1H-imidazol-1-yl)-6-methyl-N-((1r,4r)-4-(methyl(2,2,2-trifluoroethyl)amino)cyclohexyl)pyrimidine-4-carboxamide] | 
≤ 40 nM | ≤ 1000 nM | Cc1cc(C(=O)N[C@H]2CC[C@H](NCCF)CC2)nc(-n2ccnc2)n1 [Example 9, N-((1r,4r)-4-((2-fluoroethyl)amino)cyclohexyl)-2-(1H-imidazol-1-yl)-6-methyl-pyrimidine-4-carboxamide formate] | 
 | ≤ 10000 nM | Cc1cc(C(=O)N[C@H]2CC[C@@H](N3CCC(F)(F)C3)CC2)nc(-n2ccnc2)n1 [Example 11, N-((1s,4s)-4-(3,3-difluoropyrrolidin-1-yl)cyclohexyl)-2-(1H-imidazol-1-yl)-6-methyl-pyrimidine-4-carboxamide] | 
≤ 40 nM | ≤ 100 nM | Cc1cc(C(=O)N[C@H]2CC[C@H](N3CC[C@H](F)C3)CC2)nc(-n2ccnc2)n1 [Example 12, N-((1s,4r)-4-((S)-3-fluoropyrrolidin-1-yl)cyclohexyl)-2-(1H-imidazol-1-yl)-6-methyl-pyrimidine-4-carboxamide] | 
≤ 40 nM | ≤ 100 nM | Cc1cc(C(=O)N[C@H]2CC[C@H](N3CC[C@@H](F)C3)CC2)nc(-n2ccnc2)n1 [Example 13, N-((1r,4r)-4-((R)-3-fluoropyrrolidin-1-yl)cyclohexyl)-2-(1H-imidazol-1-yl)-6-methyl-pyrimidine-4-carboxamide] | 
≤ 40 nM | ≤ 100 nM | CCN[C@H]1CC[C@H](NC(=O)c2cc(C)nc(-n3ccnc3)n2)CC1 [Example 19, N-((1r,4r)-4-(ethylamino)cyclohexyl)-2-(1H-imidazol-1-yl)-6-methyl-pyrimidine-4-carboxamide Formate] | 
≤ 40 nM | ≤ 40 nM | Cc1cc(C(=O)N[C@H]2CC[C@H](N[C@@H](C)C(F)(F)F)CC2)nc(-n2ccnc2)n1 [Example 22, 2-(1H-imidazol-1-yl)-6-methyl-N-((1S,4r)-4-(((S)-1,1,1-trifluoropropan-2-yl)amino)cyclohexyl)pyrimidine-4-carboxamide] | 
≤ 40 nM | ≤ 40 nM | Cc1cc(C(=O)N[C@H]2CC[C@H](N[C@H](C)C(F)(F)F)CC2)nc(-n2ccnc2)n1 [Example 23, 2-(1H-imidazol-1-yl)-6-methyl-N-((1R,4r)-4-(((R)-1,1,1-trifluoropropan-2-yl)amino)cyclohexyl)pyrimidine-4-carboxamide] | 
≤ 40 nM | ≤ 100 nM | Cc1cc(C(=O)N[C@H]2CC[C@H](NCC(F)(F)F)CC2)nc(-n2cncc2C)n1 [Example 24, 6-methyl-2-(5-methyl-1H-imidazol-1-yl)-N-((1r,4r)-4-((2,2,2-trifluoroethyl)amino)cyclohexyl)pyrimidine-4-carboxamide] | 
≤ 40 nM | ≤ 40 nM | Cc1cc(C(=O)N[C@H]2CC[C@H](CNCC(F)(F)F)CC2)nc(-n2ccnc2)n1 [Example 25, 2-(1H-imidazol-1-yl)-6-methyl-N-((1r,4r)-4-(((2,2,2-trifluoroethyl)amino)methyl)cyclohexyl)pyrimidine-4-carboxamide] | 
≤ 40 nM | ≤ 40 nM | Cc1cc(C(=O)N[C@H]2CC[C@H](C(=O)NCC(F)(F)F)CC2)nc(-n2ccnc2)n1 [Example 26, 2-(1H-imidazol-1-yl)-6-methyl-N-((1r,4r)-4-((2,2,2-trifluoroethyl)carbamoyl)cyclohexyl)pyrimidine-4-carboxamide] | 
